Assays:
[1] = tested on: depression-like behavior of mice; test: tail suspension test; type: in vivo; settings: amlodipine experiment: single compound vs PBS, ostruthin 5 mg/kg or amlodipine 10 mg/kg, n = 9 and 13
Text: (§1) Male ICR mice (n = 317 in total) aged 5 weeks and weighing 32 ± 2 g were purchased from Shimizu Laboratory Supplies (Kyoto, Japan). For the social defeat stress test, we used 28 C57BL/6J mice (5 weeks old, Shimizu Laboratory Supplies) and 30 ICR mice (7–8 weeks old, Charles River Labs Japan, Yokohama, Kanagawa, Japan). Mice were maintained for at least 1 week prior to experiments. Animals were kept in groups in plastic cages. They had free access to food and water, and were kept in a 12-h light/dark cycle (08:00–20:00). Experiments were carried out between 10:00 and 18:00 in a quiet and air-conditioned experimental room, in which mice were habituated for at least 30 min before each experiment. Animal experiments were performed in accordance with the guidelines of the Physiological Society of Japan and were approved by the Committees on Animal Experiments at Kansai Medical University and the Kurashiki University of Science and the Arts. Ostruthin was initially dissolved in DMSO at higher concentration (100 mM) and then diluted in phosphate-buffered saline (PBS). The diluted solution was mixed vigorously for more than 10 min before the experiments, and an equal volume of DMSO was added to PBS as a control. PBS and ostruthin were administered intraperitoneally 30 min before mice behavioral tests (0.01 ml/g body weight). Each animal was used only once, except for the wheel running test, which was carried out immediately after elevated plus maze.
The tail suspension test was performed in accordance with a method reported previously. The mouse was hung on a hook using adhesive tape placed 2 cm from the extremity of its tail 50 cm above the table. The amount of time spent immobile was recorded for 5 min.

[2] = tested on: mice anxiety-like behavior; test: elevated plus maze; type: in vivo; settings: amlodipine experiment: single compound vs PBS, ostruthin 5 mg/kg or amlodipine 10 mg/kg, n = 6
Text: as §1
The elevated plus maze apparatus consisted of four arms set in a cross pattern from a neutral central square (6 × 6 cm). Two opposite arms were delimited by vertical walls (closed arms, 30 × 15 × 6 cm), whereas the other two arms had unprotected edges (open arms, 30 × 6 cm). The maze was elevated 40 cm above the floor. At the beginning of each 5 min test session, a mouse was placed in the central neutral area, facing one of the open arms. The total number of the entries to open arms and time spent in the open arms were measured. After removal of the animal, the apparatus was cleaned and wiped.

TREK-1 channel = target: T1, TREK-1 channel (Homo sapiens, UniProt O95069); test: whole-cell patch-clamp of TREK-1 currents in TR-1 cells (293T stably expressing TREK-1); type: cell-based; settings: bupivacaine 3 mM, after 100 μM ostruthin
T1 construct: expressed in transfected cells
T1 sequence (O95069 1-426): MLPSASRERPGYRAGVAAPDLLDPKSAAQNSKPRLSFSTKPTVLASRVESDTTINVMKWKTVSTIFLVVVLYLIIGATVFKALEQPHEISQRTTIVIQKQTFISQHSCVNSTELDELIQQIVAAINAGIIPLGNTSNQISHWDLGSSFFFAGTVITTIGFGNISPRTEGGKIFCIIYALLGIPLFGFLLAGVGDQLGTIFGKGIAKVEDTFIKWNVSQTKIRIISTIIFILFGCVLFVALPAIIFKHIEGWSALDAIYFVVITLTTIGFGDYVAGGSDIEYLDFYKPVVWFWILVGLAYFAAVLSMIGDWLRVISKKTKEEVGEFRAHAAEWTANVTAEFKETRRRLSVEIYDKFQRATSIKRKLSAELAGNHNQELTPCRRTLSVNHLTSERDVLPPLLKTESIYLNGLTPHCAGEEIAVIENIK
Text: (§2) For recordings of K^+ channel currents, we prepared stable cell lines for TREK-1, TWIK-related acid-sensitive K^+ channel (TASK-1), strongly inwardly rectifying K^+ channel (Kir2.1), and human ether-a-go-go-related gene (HERG-1) channels and transiently expressed other channels in 293T cells using a calcium-phosphate transfection method. For the establishment of the stable lines, we used lentiviral vectors, and the preparation methods for the lentiviral vectors were described in our previous report. TR-1 cells, which stably expressed TREK-1 channel and were grown on a small cover glass (3 × 18 mm), were placed in a recording chamber with an internal volume of 200 μl. Whole-cell currents were recorded in Tyrode solution using an Axopatch 200B amplifier (Axon Instruments, Foster City, CA) at 25°C. […] Perfusion (100 μl/min) was continued to maintain the water level throughout recordings. pH and osmotic pressure of solutions were measured with a pH meter (Horiba, Kyoto, Japan) and a freezing point osmometer (Knauer, Berlin, Germany), respectively.
We previously prepared a lentiviral vector that expressed the TREK-1 channel and using this vector we established a cell line, TR-1, which stably expressed the channel. […] Immediately after whole-cell access, small outward currents were recorded in response to depolarizing step pulses (Fig 1A, 0 min). […]

TREK-2 channel [3] = target: T2, TREK-2 channel (Homo sapiens, UniProt P57789); test: whole-cell patch-clamp of TREK-2 currents transiently expressed in 293T cells; type: cell-based; settings: bupivacaine 3 mM, after ostruthin
T2 construct: expressed in transfected cells; host or cells: 293T (transient, calcium-phosphate transfection)
T2 sequence (P57789 1-538): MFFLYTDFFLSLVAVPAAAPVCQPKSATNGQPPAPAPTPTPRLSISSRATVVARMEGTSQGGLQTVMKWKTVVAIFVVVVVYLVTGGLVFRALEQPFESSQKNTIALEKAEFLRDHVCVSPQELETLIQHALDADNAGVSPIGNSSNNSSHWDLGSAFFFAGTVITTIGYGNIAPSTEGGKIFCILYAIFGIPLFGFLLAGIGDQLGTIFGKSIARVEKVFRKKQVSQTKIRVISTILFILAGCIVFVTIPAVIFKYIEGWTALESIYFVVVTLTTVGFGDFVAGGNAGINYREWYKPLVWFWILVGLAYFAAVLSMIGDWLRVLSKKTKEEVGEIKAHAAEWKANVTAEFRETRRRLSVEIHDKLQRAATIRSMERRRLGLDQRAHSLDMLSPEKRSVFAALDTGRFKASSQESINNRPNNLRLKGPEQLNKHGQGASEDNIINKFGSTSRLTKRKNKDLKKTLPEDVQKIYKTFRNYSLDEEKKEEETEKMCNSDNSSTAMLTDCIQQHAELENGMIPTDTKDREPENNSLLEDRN
Text: as §2
TREK-1 channels are known to be activated by low pH and mechanical stretch. […] To test these possibilities, we measured the pH of Tyrode solution before and after addition of 100 μM ostruthin, and observed no significant change (from 7.31 ± 0.17 to 7.33 ± 0.22, p = 0.645, paired t-test, n = 6). […]

TREK-2 channel [4] = target: T2, TREK-2 channel; parameters: method as in PMID 10880510; settings: 100 μM; cited from earlier work

inhibition of the ostruthin-increased TREK-1 current (TREK-1 channel) | block of TREK-2 current (TREK-2 channel [3]) | SMILES | time spent immobile [1] | number of entries to the open arm [2] | sensitivity of TREK-2 channel to bupivacaine (TREK-2 channel [4])
– | – | CCOC(=O)C1=C(COCCN)NC(C)=C(C(=O)OC)C1c1ccccc1Cl (centres unmarked) [amlodipine, reference compound] | non-significantly decreased | non-significantly decreased | –
inhibited nearly completely | almost blocked the current | CCCCN1CCCCC1C(=O)Nc1c(C)cccc1C (centres unmarked) [bupivacaine, reference compound] | – | – | insensitive
